Assay results as given in patent publication US5795899A, “Soluble salts of 4-amino-2-(4,4-dimethylimidazolidin-2-on-1-yl) pyrimidine-5-carboxylic acid N-methyl-N-(3-trifluoromethylphenyl)-amide, a process for the preparation thereof, the use thereof as pharmaceuticals and starting materials” (Hoechst Aktiengesellschaft, priority 1992, dated 1998).

Tests used:
LDL receptor = experiment: Uptake of 125I-labeled homologous LDL / functional LDL receptor levels on HepG2 cells; type: cell-based, human; conditions: FIG. 3
Description: In this test, homologous LDL which had been purified by standard processes was labeled with ^125 I by the iodine monochloride method. Used in this case was the method of Bilheimer which is disclosed in the literature and is a modification of the iodination technique originally developed by McFarlaine (compare Bilheimer, D. W., Eisenberg, S., and Levy, R. L., Biochim. Biophys. Acta, 260, 212 (1972)).
To determine the ^125 I-LDL incorporation, HepG2 cells were preincubated with and without hydrochloride of the compound I for 36 hours and subsequently incubated with iodine-labeled LDL at 37° C. in an incubator for 3 hours.
Subsequently, the cells were washed in the presence of 2% bovine serum albumin, the cells were lyzed with 1 ml of 0.1N NaOH, and the incorporated radioactivity was measured. The specific radioactivity uptake (total radioactivity uptake less the unspecific radioactivity uptake) per mg of protein was then calculated, as generally customary, via a protein determination by the Lowry method, and the radioactivity taken up by the control […] was set equal to 100%.

[1] = test system: carbohydrate-induced hypertriglyceridemia; experiment: Inhibition of carbohydrate-induced hypertriglyceridemia; type: in vivo, male Sprague-Dawley rats; conditions: 1 mg/kg/day
Description: Groups of in each case 10 male Sprague-Dawley rats (supplied by the breeder Mollegard with a weight of 250-280 g) received on each of 4 consecutive days one administration of the compound dissolved in PEG 400 by gavage. In addition, after the 3rd administration and 8 and 24 hours later they received 2.5 g of fructose/kg, likewise by gavage. Moreover, after the 3rd administration of product, 50% strength fructose solution was offered to them as drinking water ad libitum, and the food was withdrawn. Retroorbital removal of blood, from which the serum was obtained for the triglyceride determination and VLDL preparation in the ultracentrifuge (flotation at d=1.006), took place 3 hours after the last product/fructose administration. The food received by the animals from 1 week before the 1st administration and up to the 3rd administration was a diet with 40% casein in the feed meal.
The animals develop, as a result of this treatment, a hypertriglyceridemia which approximately corresponds to Fredrickson phenotype IV in humans. The serum triglycerides of the normal animals increased from 0.54 to 1.1 mmol/l, and the VLDL triglycerides from 0.67 to 1.81.

Structure (SMILES): CN(C(=O)c1cnc(N2CC(C)(C)NC2=O)nc1N)c1cccc(C(F)(F)F)c1.Cl [Compound I as hydrochloride, 4-amino-2-(4,4-dimethyl-2-oxo-1-imidazolidinyl)pyrimidine-5-carboxylic acid N-methyl-N-(3-trifluoromethylphenyl)amide hydrochloride]
- Functional LDL receptor levels on HepG2 cells (LDL receptor): corresponding increase
- Increase in uptake of 125I-labeled homologous LDL (LDL receptor; HepG2, preincubation 36 hours, then 125I-LDL at 37° C. 3 hours): increased by up to two and a half times
- Inhibition of the increase in the VLDL triglycerides (in words) [1]: almost one half
